Measured values reported in patent US20250064886A1, “CARDIOVASCULAR AND CEREBROVASCULAR DRUG AND USE THEREOF” (HANGZHOU ADAMERCK PHARMLABS INC., priority 2021, published 2025).
Marks after values point to notes of the source that are not given here.

Assays:
[1] = test system: vascular inflammation in high-glucose and high-fat zebrafish; test: Regressive effect on vascular inflammation in high-glucose and high-fat zebrafish (Example 9); format: in vivo
Protocol: Experimental method: 360 tails of 5 dpf macrophage fluorescent zebrafish were randomly selected and placed in beakers with 30 tails in each beaker, compound (1), compound (3), and compound (5) were given intravenously, and the positive control group was given atorvastatin calcium by dissolving it in water at a concentration of 30 μg/mL, while the normal control group (fish farming water-treated zebrafish) and the model control group were set up, and the volume of each beaker (experimental group) was 25 mL. Except for the normal control group, all other groups were given high-lipids and high-sucrose feed by dissolving it in water. Compound (1), compound (3) and compound (5) group were co-treated with high-lipids and high-sucrose feed for 30 h. The treatment was carried out up to 9 dpf, and 10 zebrafish were randomly selected from each experimental group to collect the intensity of the macrophage fluorescence within the tail vein and around the tail vein of the zebrafish under fluorescence microscope, and the results of the statistical analysis were used to evaluate the regressive effect of compound (1), compound (3), compound (5) on zebrafish vascular inflammation in the high sugar and high fat model.

[2] = test system: vascular endothelial injury induced thrombosis model in zebrafish; test: Preventative effect on vascular endothelial injury induced thrombosis, ponatinib zebrafish model (Example 1); format: in vivo; conditions: 4.00 ng/tail injected
Protocol: Experimental method: 420 tails of 5 dpf wild type AB strain zebrafish were randomly selected and placed in a six-well plate, with 30 fish per well (experimental group). The fish were injected with compound (1), compound (2), compound (3), compound (4), compound (5), compound (6), compound (7), compound (8), compound (9), compound (10), and compound (11) (structural formula shown in Table 1) at a dose of 4.00 ng/tail, with positive control drug acetylsalicylic acid being administered by dissolving it in water at a concentration of 30.0 µg/mL. Normal control group (i.e. zebrafish treated with standard diluted water) and model control group were set up, with a capacity of 3 mL per well (experimental group). Except for normal control group, the remaining experimental groups were all given Punatinib by dissolving it in water to induce vascular endothelial injury induced thrombosis model in zebrafish. The zebrafish were stained with o-dianisidine after co-treatment with ponatinib and samples for a period of time under incubation conditions at 28° C.
After staining, 10 zebrafish in each group were randomly selected and photographed under the microscope, and the intensity of cardiac erythrocyte staining in zebrafish was analyzed using NIS-Elements D 3.20 advanced image-processing software, and the samples were evaluated for the preventative effect on vascular endothelial injury induced thrombosis by the statistical results of cardiac erythrocyte staining intensity.
The preventative effect on thrombosis is calculated as follows: […]
Statistical analysis was performed using SPSS software, and p<0.05 indicates significant differences

[3] = test system: iron content in Erastin-induced neuronal cells; test: Iron content (PGSK probe) in Erastin-induced neuronal cells (Example 8); format: cell-based, rat; conditions: Erastin 50 μM
Protocol: (§1) Experimental method: Primary neuron cells were incubated in a medium containing Erastin (final concentration of 50 μM) for 24 hours, and then incubated in a medium containing different concentrations of the test drug and Erastin (final concentration of 50 μM) for another 24 hours. After incubation, Real time PCR was used to detect mRNA expression of GPX4 in each group of cells, CCK8 assay was used to detect cell viability in each group of cells, C11-BODIPY probe method was used to detect intracellular lipid ROS levels in each group of cells, and PGSK probe method was used to detect iron content in cells.
(§2) The experimental data were expressed in means±SD, and statistical differences between groups were determined using one-way ANOVA and Tukey's test, with p-values less than 0.05 considered significant.
After incubation, the PGSK probe method was used to detect the intracellular iron content. The results were presented as Mean±SD. Compared with the control group, ***p<0.0001; Compared with the model group, #p<0.05, ##p<0.01.

[4] = test system: lipid ROS levels in Erastin-induced nerve cells; test: Lipid ROS levels (C11-BODIPY probe) in Erastin-induced nerve cells (Example 8); format: cell-based, rat; conditions: Erastin 50 μM
Protocol: as §1, §2
After incubation, the C11-BODIPY probe method was used to detect the lipid ROS levels in each group of cells. The results were presented as Mean±SD. Compared with the control group, ***p<0.0001; compared with the model group, #p<0.05, ##p<0.01.

GPX4 mRNA = GPX4 mRNA expression (real time PCR) in Erastin-induced neuronal cells (Example 8); format: cell-based, rat; conditions: Erastin 50 μM
Protocol: as §1, §2
After incubation, real time PCR was used to detect the mRNA expression of GPX4 in each group of cells. The results were presented as Mean±SD. Compared with the control group, ***p<0.0001; Compared with the model group, #p<0.05, […].

[5] = test system: Erastin-induced neuronal cells; test: Cell viability (CCK8) of Erastin-induced neuronal cells (Example 8); format: cell-based, rat; conditions: for Cell viability (%): Erastin 50 μM
Protocol: as §1, §2
After incubation, the CCK8 experiment was used to detect the cell viability of each group of cells. The results were presented as Mean±SD. Compared with control group, ***p<0.0001. Compared with model control group, ^#P<0.05, ^##P<0.01.

CC(C)c1c(C(=O)Nc2ccccc2)c(-c2ccccc2)c(-c2ccc(F)cc2)n1CC[C@@H](O)C[C@@H](O)CC(=O)[O-].CC(C)c1c(C(=O)Nc2ccccc2)c(-c2ccccc2)c(-c2ccc(F)cc2)n1CC[C@@H](O)C[C@@H](O)CC(=O)[O-].[Ca+2] [Atorvastatin calcium, atorvastatin calcium, reference compound]
Anti-inflammatory effect (%) ([1]; 30 μg/mL in water): 42*** % | Fluorescence intensity of perivascular macrophage (pixels, Mean ± SE) ([1]; 30 μg/mL in water, n = 10): 106352 ± 6663 pixels

CC(=O)N[C@H](CSCC1OC2OC3C(CSC[C@@H](NC(C)=O)C(=O)[O-])OC(OC4C(CSC[C@@H](NC(C)=O)C(=O)[O-])OC(OC5C(CSC[C@@H](NC(C)=O)C(=O)[O-])OC(OC6C(CSC[C@@H](NC(C)=O)C(=O)[O-])OC(OC7C(CSC[C@@H](NC(C)=O)C(=O)[O-])OC(OC1C(O)C2O)C(O)C7O)C(O)C6O)C(O)C5O)C(O)C4O)C(O)C3O)C(=O)[O-].[Na+].[Na+].[Na+].[Na+].[Na+].[Na+] (stereo partly drawn) [Compound (3)]
Preventative effect on thrombosis (%) [2]: 17% | Cardiac erythrocyte staining intensity (pixels, mean ± SE) ([2]; n = 10): 3045 ± 219 pixels | Cardiac erythrocyte staining intensity (pixels, mean ± SE) ([2]; n = 10, listed as compound (3)): 3045 pixels | Anti-inflammatory effect (%) ([1]; 11.1 ng/tail intravenous): 38*** % | Fluorescence intensity of perivascular macrophage (pixels, Mean ± SE) ([1]; 11.1 ng/tail intravenous): 113809 ± 7995 pixels | Anti-inflammatory effect (%) ([1]; 33.3 ng/tail intravenous): 36*** % | Fluorescence intensity of perivascular macrophage (pixels, Mean ± SE) ([1]; 33.3 ng/tail intravenous): 118747 ± 6434 pixels | Anti-inflammatory effect (%) ([1]; 100 ng/tail intravenous): 36*** % | Fluorescence intensity of perivascular macrophage (pixels, Mean ± SE) ([1]; 100 ng/tail intravenous): 118504 ± 10539 pixels | Iron content (PGSK probe) ([3]; 1 μM, control = 100, PGSK fluorescence, weaker = more iron): 56.48 ± 3.32^ | Iron content (PGSK probe) ([3]; 2.5 μM): 62.3 ± 7 | Iron content (PGSK probe) ([3]; 5 μM): 67.06 ± 11.62 | Iron content (PGSK probe) ([3]; 10 μM): 71.61 ± 9.86^ | Iron content (PGSK probe) ([3]; 20 μM): 76.67 ± 7.25^# | Iron content (PGSK probe) ([3]; 40 μM): 83.81 ± 9.91^## | Lipid ROS levels (%) ([4]; 1 μM, control = 100, Mean±SD): 146.56 ± 7.67% | Lipid ROS levels (%) ([4]; 2.5 μM): 141.34 ± 4.22% | Lipid ROS levels (%) ([4]; 5 μM): 136.81 ± 7.9% | Lipid ROS levels (%) ([4]; 10 μM): 132.38 ± 2.23% | Lipid ROS levels (%) ([4]; 20 μM): 125.33 ± 9.79^# % | Lipid ROS levels (%) ([4]; 40 μM): 120.37 ± 10.16^## % | Expression of GPX4 mRNA (GPX4 mRNA; 1 μM, control about 1.00, Mean±SD): 0.4359 ± 0.05 | Expression of GPX4 mRNA (GPX4 mRNA; 2.5 μM): 0.4875 ± 0.01 | Expression of GPX4 mRNA (GPX4 mRNA; 5 μM): 0.5407 ± 0.06 | Expression of GPX4 mRNA (GPX4 mRNA; 10 μM): 0.6152 ± 0.07^## | Expression of GPX4 mRNA (GPX4 mRNA; 20 μM): 0.6765 ± 0.07^## | Expression of GPX4 mRNA (GPX4 mRNA; 40 μM): 0.7421 ± 0.08^## | Cell viability (%) ([5]; 1 μM, 24 h, control = 100, Mean±SD): 52.87 ± 2.55% | Cell viability (%) ([5]; 2.5 μM): 56.6 ± 4.76% | Cell viability (%) ([5]; 5 μM): 62.52 ± 8.51% | Cell viability (%) ([5]; 10 μM): 66.77 ± 6.27% | Cell viability (%) ([5]; 20 μM): 73.21 ± 8.1^# % | Cell viability (%) ([5]; 40 μM): 77.95 ± 6.34^## % | Concentration above which cell viability was significantly increased compared with the model group ([5]; p<0.05): greater than 10 μM
